Experiments:
[1] = tested on: Venturia inaequalis; test: In vivo fungicidal evaluation, Apple Scab (AS); conditions: 200 ppm, plants sprayed before inoculation
[2] = tested on: Plasmopara viticola; test: In vivo fungicidal evaluation, Grape Downy Mildew (GDM); conditions: 200 ppm, plants sprayed before inoculation
[3] = tested on: Botrytis cinerea; test: In vivo fungicidal evaluation, Pepper Botrytis (PB); conditions: 200 ppm, plants sprayed before inoculation
[4] = tested on: Pyricularia oryzae; type: in vivo; conditions: 200 ppm, plants sprayed before inoculation
[5] = tested on: Cercospora beticola; test: In vivo fungicidal evaluation, Sugar Beet Cercospora (SBC); conditions: plants sprayed before inoculation
[6] = tested on: Alternaria solani; test: In vivo fungicidal evaluation, Tomato Early Blight (TEB); conditions: 200 ppm, plants sprayed before inoculation
[7] = tested on: Puccinia recondita f. sp. tritici; test: In vivo fungicidal evaluation, Wheat Leaf Rust (WLR); conditions: 200 ppm, plants sprayed before inoculation
[8] = tested on: Erysiphe graminis f. sp. tritici; test: In vivo fungicidal evaluation, Wheat Powdery Mildew (WPM); conditions: 200 ppm, plants sprayed before inoculation
[9] = tested on: Rhizoctonia solani; test: In vivo fungicidal evaluation, Rice Sheath Blight (RSB); conditions: 400 ppm, plants sprayed before inoculation
[10] = tested on: Cercospora arachidicola; test: In vivo fungicidal evaluation, Peanut Cercospora Early Leaf Spot (PCE); conditions: 400 ppm, plants sprayed before inoculation
[11] = tested on: Pseudocercosporella herpotrichoides; test: In vivo fungicidal evaluation, Wheat Eyespot (WES); conditions: 400 ppm, plants sprayed before inoculation
[12] = tested on: Fusarium oxysporum f. sp. cucumerinum; test: In vitro fungicidal evaluation, growth inhibition (FUSOXC); type: cell-based; parameters: scale not given here; conditions: 25 ppm, 3-4 days at 21° C.
Description: (§1) Test compounds are dissolved in acetone and dispersed into cell well plates containing a suspension of ground fungal mycelia in a nutrient broth. Assay plates are incubated for 3-4 days at 21° C. Growth inhibition is measured visually and is rated using the following scale:
(§2) Untreated controls, solvent blanks and reference standards are included in each test.
(§3) Assay fungi include the plant pathogens, Pythium ultimum (Pythul); Rhizoctonia solani (Rhizso); Fusarium oxysporum f. sp. cucumerinum (Fusoxc); and Pseudocercosporella herpotrichoides (Psdche).
(§4) When more than one test is run, the data are averaged.

[13] = tested on: Pseudocercosporella herpotrichoides; test: In vitro fungicidal evaluation, growth inhibition (PSDCHE); type: cell-based; parameters: scale not given here; conditions: 25 ppm, 3-4 days at 21° C.
Description: as §1, §2, §3, §4

[14] = tested on: Pythium ultimum; test: In vitro fungicidal evaluation, growth inhibition (PYTHUL); type: cell-based; parameters: scale not given here; conditions: 25 ppm, 3-4 days at 21° C.
Description: as §1, §2, §3, §4

[15] = tested on: Rhizoctonia solani; test: In vitro fungicidal evaluation, growth inhibition (RHIZSO); type: cell-based; parameters: scale not given here; conditions: 25 ppm, 3-4 days at 21° C.
Description: as §1, §2, §3, §4

[16] = tested on: Mycosphaerella fijiensis; test: Control of banana black sigatoka on banana seedlings; type: in vivo; conditions: 200 ppm, leaves sprayed to run-off; 28 to 40 days post inoculation
Description: Test compounds are dissolved in acetone and diluted with distilled water containing about 0.05% TWEEN 20® to give a concentration of 200 ppm. Banana seedlings at the 6-7 leaf stage are sprayed with test solution on the upper and lower surfaces of the 3 youngest, unfurled leaves to the point of run-off, dried and inoculated with a spore suspension of Mycosphaerella fijiensis. The inoculated banana seedlings are placed outdoors in a plastic tunnel lined with wet jute sacks. The temperature is maintained between about 25° and 32° C. and the relative humidity is maintained between about 85% and 100%. After five days, the banana seedlings are transferred to a partially shaded screenhouse, surrounded with wet jute sacks and misted daily. When disease symptom development is optimal, typically 28 to 40 days post inoculation, the banana seedlings are rated for disease control according to the rating scale shown below. Each test contains inoculated treated plants, inoculated untreated plants and a reference standard. When more than one test is run, the data are averaged.

[17] = tested on: Fusarium oxysporium f. sp. cucumerinum; test: Control of soil borne diseases, Cucumber Fusarium Wilt (CUFO); type: in vivo; conditions: 14-18 days after treatment; further: ranges in brackets are in %
Description: (§5) Pasturized soil (100 mL) is added to 6 cm diameter plastic cups without drainage holes and covered with pathogen contaminated soil (30 mL). Ten germinated cucumber seeds are planted on the contaminated soil and the seeds are covered with pasteurized soil (20 mL). Test compounds are dissolved in acetone, diluted with deionized water containing about 0.05% TWEEN 20®, and applied to the pots by drenching the soil surface with 15 mL of test solution. The pots are placed in a greenhouse for disease development. The pots are watered lightly until plants emerge from the soil surface. Disease evaluations are made 14-18 days after treatment according to the rating scale shown below.

[18] = tested on: Pythium aphanidermantum; test: Control of soil borne diseases, Cucumber damping-off by Pythium (CUPA); type: in vivo; conditions: 14-18 days after treatment; further: ranges in brackets are in %
Description: as §5

[19] = tested on: Rhizoctonia solani; test: Control of soil borne diseases, Cucumber damping-off by Rhizoctonia (CURS); type: in vivo; conditions: 14-18 days after treatment; further: ranges in brackets are in %
Description: as §5

| Compound | disease control rating, AS [1] | disease control rating, GDM [2] | disease control rating, PB [3] | disease control rating, RB [4] | disease control rating, SBC ([5]; 200 ppm) | disease control rating, SBC ([5]; 400 ppm) | disease control rating, TEB [6] | disease control rating, WLR [7] | disease control rating, WPM [8] | disease control rating, RSB [9] | growth inhibition rating, FUSOXC [12] | growth inhibition rating, PSDCHE [13] | growth inhibition rating, PYTHUL [14] | growth inhibition rating, RHIZSO [15] | disease control rating, CUFO ([17]; 2.5 kg/ha soil drench) | disease control rating, CUFO ([17]; 5.0 kg/ha soil drench) | disease control rating, CUFO ([17]; 10.0 kg/ha soil drench) | disease control rating, CUPA ([18]; 2.5 kg/ha soil drench) | disease control rating, CUPA ([18]; 5.0 kg/ha soil drench) | disease control rating, CUPA ([18]; 10.0 kg/ha soil drench) | other results |
| --- | --- | --- | --- | --- | --- | --- | --- | --- | --- | --- | --- | --- | --- | --- | --- | --- | --- | --- | --- | --- | --- |
| CN([O-])C(=S)C(=O)C(C)(C)C.CN([O-])C(=S)C(=O)C(C)(C)C.[Cu+2] [N,3,3-trimethyl-2-oxo-1-thiobutyrohydroxamic acid copper(+2) chelate] | 8.0 | 7.7 | 6.5 | 0.0 | 7.2 | 6.1 | 9.0 | 6.5 | 5.0 | 4.7 | 4.8 | 8.5 | 8.0 | 8.5 | 3 (30-40) | 5 (60-70) | 6 (75-85) | 1 (5-10) | 2 (15-25) | 1 (5-10) | disease control rating, PCE [10]: 7.0; disease control rating, WES [11]: 6.7; Control of Banana Black Sigatoka (rating) [16]: 6.3; disease control rating, CURS ([19]; 2.5 kg/ha soil drench): 5 (60-70); disease control rating, CURS ([19]; 5.0 kg/ha soil drench): 6 (75-85); disease control rating, CURS ([19]; 10.0 kg/ha soil drench): 9 (100) |
| CN([O-])C(=S)C(=O)C(C)(C)C.CN([O-])C(=S)C(=O)C(C)(C)C.CN([O-])C(=S)C(=O)C(C)(C)C.[Fe+3] [N,3,3-trimethyl-2-oxo-1-thiobutyrohydroxamic acid iron(+3) chelate] | 9.0 | 8.5 | 6.0 | 0.0 | 8.2 | 6.8 | 9.0 | 6.5 | 5.5 | 3.3 | 1.3 | 2.5 | 8.0 | 4.5 | 1 (5-10) | 2 (15-25) | 3 (30-40) | 0 (0) | 1 (5-10) | 2 (15-25) | disease control rating, CURS ([19]; 2.5 kg/ha soil drench): 4 (45-55); disease control rating, CURS ([19]; 5.0 kg/ha soil drench): 6 (75-85); disease control rating, CURS ([19]; 10.0 kg/ha soil drench): 9 (100) |
| CN(O)C(=S)C(=O)C(C)(C)C.CN(O)C(=S)C(=O)C(C)(C)C.[Mn+2] [N,3,3-trimethyl-2-oxo-1-thiobutyrohydroxamic acid manganese(+2) chelate] | 8.5 | 5.5 | 8.5 | 3.0 | 7.5 |  | 8.5 | 6.5 | 7.0 | 0.0 | 0.0 | 7.0 | 6.0 | 4.5 |  |  |  |  |  |  |  |
| CN([O-])C(=S)C(=O)C(C)(C)C.CN([O-])C(=S)C(=O)C(C)(C)C.[Zn+2] [N,3,3-trimethyl-2-oxo-1-thiobutyrohydroxamic acid zinc(+2) chelate] | 9.0 | 9.0 | 8.5 | 8.0 | 8.4 | 7.5 | 8.5 | 7.5 | 3.0 | 6.0 | 4.5 | 4.0 | 8.5 | 4.5 | 2 (15-25) | 1 (5-10) | 4 (45-55) | 0 (0) | 2 (15-25) | 4 (45-55) | disease control rating, CURS ([19]; 2.5 kg/ha soil drench): 4 (45-55); disease control rating, CURS ([19]; 5.0 kg/ha soil drench): 6 (75-85); disease control rating, CURS ([19]; 10.0 kg/ha soil drench): 9 (100) |
| CN(O)C(=S)C(=O)C(C)(C)C [N,3,3-trimethyl-2-oxo-1-thiobutyrohydroxamic acid] | 5.0 | 4.3 | 3.0 | 2.7 | 7.0 | 3.5 | 2.7 | 1.7 | 6.3 | 0.3 | 0.0 | 1.0 | 6.0 | 6.0 | 1 (5-10) | 0 (0) | 1 (5-10) | 2 (15-25) | 2 (15-25) | 3 (30-40) | Control of Banana Black Sigatoka (rating) [16]: 3.7; disease control rating, CURS ([19]; 2.5 kg/ha soil drench): 2 (15-25); disease control rating, CURS ([19]; 5.0 kg/ha soil drench): 5 (60-70); disease control rating, CURS ([19]; 10.0 kg/ha soil drench): 7 (90) |
| C=CC(=O)ON(C)C(=S)C(=O)C(C)(C)C [acrylate ester of N,3,3-trimethyl-2-oxo-1-thiobutyrohydroxamate] | 0.0 | 0.0 | 2.0 | 0.0 | 0.0 |  | 0.0 |  | 0.0 |  | 0.0 | 7.0 | 9.0 | 0.0 |  |  |  |  |  |  |  |
| COC(=O)ON(C)C(=S)C(=O)C(C)(C)C [methylcarbonate ester of N,3,3-trimethyl-2-oxo-1thiobutyrohydroxamate] | 0.0 | 0.0 | 0.0 | 0.0 | 0.0 |  | 2.0 |  | 0.0 |  | 0.0 | 0.0 | 5.0 | 0.0 |  |  |  |  |  |  |  |
| CN(OC(=O)c1ccc(Cl)cc1)C(=S)C(=O)C(C)(C)C [p-Chlorobenzoate ester of N,3,3-trimethyl-2-oxo-1-thiobutyrohydroxamate] | 8.0 | 0.0 | 8.0 | 6.0 | 4.0 |  | 6.0 |  | 3.0 |  | 0.0 | 0.0 | 0.0 | 0.0 |  |  |  |  |  |  |  |
| N-methyl-alpha-thio-1-adamantaneglyoxylohydroxamic acid zinc(+2) chelate | 0.0 | 0.0 | 0.0 | 0.0 | 0.5 | 3.0 | 0.0 |  | 0.0 |  | 0.0 | 0.0 | 1.5 | 0.0 |  |  |  |  |  |  |  |

Reference: patent US5342980A, “Fungicidal agents” (American Cyanamid Company, priority 1992, dated 1994)
